Test system: B. burgdorferi B31
Assay: RNA-Seq gene expression profile of B. burgdorferi persisters that survived antibiotic treatment, compared with drug free control
Type: cell-based, Borrelia burgdorferi
Method: RNA Sequencing (RNA-Seq) was performed to determine the gene expression profile of B. burgdorferi persisters that survived antibiotic treatment using next generation sequencing to shed light on the mechanisms of B. burgdorferi persistence. B. burgdorferi B31 cultures were grown for 5 days to 1×10^7 spirochetes/ml in BSK-H medium followed by treatment with 50 μg/ml doxycycline or 50 μg/ml amoxicillin for 6 days. Triplicate biological samples were used for each group. The total RNA was extracted and ribosomal RNA was removed prior to preparation of cDNA libraries for Illumina sequencing. […] The RNA-Seq data was analyzed by BLAST analysis and mapped to KEGG pathways.

In the case of `CC1(C)S[C@@H]2[C@H](NC(=O)[C@H](N)c3ccc(O)cc3)C(=O)N2[C@H]1C(=O)O` [Amo], the “Expression BB_U05” value (gene BB_U05, PF-32 protein) is reported as 0, the “Expression BB_U06” value (gene BB_U06, plasmid partition protein) is reported as 0 and the “Expression BB_U07” value (gene BB_U07, protein BBC01) is reported as 0. The “Expression BB_U08” value (gene BB_U08, SUA5 subfamily protein) was 0, the “Expression BB_U09” value (gene BB_U09, TM2 family protein) was 0 and the “Expression BB_U10” value (gene BB_U10, protein BBC01) was 0. For the same compound, the “Expression BB_U11” value (gene BB_U11, Sua5/YciO/YrdC/YwlC family protein) was 0, the “Expression BB_t19” value (gene BB_t19, Ser tRNA) was 7 and the “Expression BB_t26” value (gene BB_t26, Arg tRNA) was 0. The “Expression BB_t27” value (gene BB_t27, Leu tRNA) was 2, the “Expression BB_L35” value (gene bdrO BB_L35, protein BdrO) was 0 and the “Expression BB_N34” value (gene bdrQ BB_N34, BdrQ) was 1. For the same compound, the “Expression BB_Q34” value (gene bdrW BB_Q34, protein BdrW protein) was 1, the “Expression BB_L23” value (gene blyA BB_L23, holin protein) was 0 and the “Expression BB_L24” value (gene blyB BB_L24, holin protein) was 0. For the same compound, the “Expression BB_L36” value (gene bppA BB_L36, protein BppA) was 0, the “Expression BB_L37” value (gene bppB BB_L37, protein BppB) was 1 and the “Expression BB_Q47” value (gene erpX BB_Q47, protein ErpX) was 0. The “Expression BB_L28” value (gene mlpH BB_L28, lipoprotein) was 1, the “Expression BB_t16” value (gene tRNA-Arg-3 BB_t16, Arg tRNA) was 3 and the “Expression BB_t08” value (gene tRNA-His-1 BB_t08, His tRNA) was 0. For the same compound, the “Expression BB_t07” value (gene tRNA-Lys-2 BB_t07, Lys tRNA) was 0, the “Expression BB_t14” value (gene tRNA-Thr-2 BB_t14, Thr tRNA) was 0 and the “Expression BB_t03” value (gene tRNA-Trp-1 BB_t03, Trp tRNA) was 1. The “Expression BB_I16” value (gene vraA BB_I16, repetitive antigen A) was 0, the “Expression BB_0368” value (glycerol-3-phosphate dehydrogenase) was 95 and the “Expression BB_0185” value (glycoprotease family protein) was 50. The “Expression blyB BB_R24” value (hemolysin accessory protein) was 0, the “Expression blyA BB_M23” value (holin protein) was 0 and the “Expression blyA BB_N23” value (holin protein) was 50. For the same compound, the “Expression blyA BB_P23” value (holin protein) was 64, the “Expression blyA BB_S23” value (holin protein) was 0 and the “Expression blyB BB_N24” value (holin protein) was 0. The “Expression blyB BB_S24” value (holin protein) was 0, the “Expression BB_0024” value (hypothetical protein) was 390 and the “Expression BB_0029” value (hypothetical protein) was 114. For the same compound, the “Expression BB_0044” value (hypothetical protein) was 0, the “Expression BB_0102” value (hypothetical protein) was 53 and the “Expression BB_0162” value (hypothetical protein) was 401. For the same compound, the “Expression BB_0238” value (hypothetical protein) was 26, the “Expression BB_0242” value (hypothetical protein) was 2 and the “Expression BB_0252” value (hypothetical protein) was 497. For the same compound, the “Expression BB_0308” value (hypothetical protein) was 0, the “Expression BB_0322” value (hypothetical protein) was 1 and the “Expression BB_0331” value (hypothetical protein) was 5. For the same compound, the “Expression BB_0336” value (hypothetical protein) was 61, the “Expression BB_0352” value (hypothetical protein) was 66 and the “Expression BB_0367” value (hypothetical protein) was 176. The “Expression BB_0373” value (hypothetical protein) was 4, the “Expression BB_0378” value (hypothetical protein) was 129 and the “Expression BB_0428” value (hypothetical protein) was 627. For the same compound, the “Expression BB_0525” value (hypothetical protein) was 73, the “Expression BB_0549” value (hypothetical protein) was 0 and the “Expression BB_0576” value (hypothetical protein) was 140. For the same compound, the “Expression BB_0646” value (hypothetical protein) was 444, the “Expression BB_0663” value (hypothetical protein) was 533 and the “Expression BB_0673” value (hypothetical protein) was 15. The “Expression BB_0707” value (hypothetical protein) was 35, the “Expression BB_0739” value (hypothetical protein) was 51 and the “Expression BB_0799” value (hypothetical protein) was 2. The “Expression BB_0824” value (hypothetical protein) was 98, the “Expression BB_0838a” value (hypothetical protein) was 4 and the “Expression BB_A09” value (hypothetical protein) was 50. For the same compound, the “Expression BB_A13” value (hypothetical protein) was 256, the “Expression BB_A61” value (hypothetical protein) was 133 and the “Expression BB_D22” value (hypothetical protein) was 5. The “Expression BB_D24” value (hypothetical protein) was 0, the “Expression BB_D0027” value (hypothetical protein) was 0 and the “Expression BB_G33” value (hypothetical protein) was 13. The “Expression BB_G34” value (hypothetical protein) was 439, the “Expression BB_H05” value (hypothetical protein) was 23 and the “Expression BB_H27” value (hypothetical protein) was 4. The “Expression BB_J13” value (hypothetical protein) was 5, the “Expression BB_J19” value (hypothetical protein) was 3 and the “Expression BB_J24” value (hypothetical protein) was 0. The “Expression BB_J46” value (hypothetical protein) was 17, the “Expression BB_J47” value (hypothetical protein) was 69 and the “Expression BB_J0056” value (hypothetical protein) was 13. For the same compound, the “Expression BB_L19” value (hypothetical protein) was 24, the “Expression BB_L20” value (hypothetical protein) was 22 and the “Expression BB_L25” value (hypothetical protein) was 13. The “Expression BB_L26” value (hypothetical protein) was 1, the “Expression BB_L41” value (hypothetical protein) was 0 and the “Expression BB_M12” value (hypothetical protein) was 0. For the same compound, the “Expression BB_M13” value (hypothetical protein) was 0, the “Expression BB_M14” value (hypothetical protein) was 0 and the “Expression BB_M15” value (hypothetical protein) was 0. The “Expression BB_M17” value (hypothetical protein) was 0, the “Expression BB_M25” value (hypothetical protein) was 0 and the “Expression BB_M30” value (hypothetical protein) was 0. For the same compound, the “Expression BB_M39” value (hypothetical protein) was 0, the “Expression BB_M41” value (hypothetical protein) was 0 and the “Expression BB_N20” value (hypothetical protein) was 68. For the same compound, the “Expression BB_N30” value (hypothetical protein) was 1, the “Expression BB_N41” value (hypothetical protein) was 47 and the “Expression BB_O02” value (hypothetical protein) was 0. For the same compound, the “Expression BB_O03” value (hypothetical protein) was 0, the “Expression BB_O04” value (hypothetical protein) was 0 and the “Expression BB_O05” value (hypothetical protein) was 0. The “Expression BB_O06” value (hypothetical protein) was 0, the “Expression BB_O08” value (hypothetical protein) was 0 and the “Expression BB_O09” value (hypothetical protein) was 0. For the same compound, the “Expression BB_O10” value (hypothetical protein) was 0, the “Expression BB_O13” value (hypothetical protein) was 0 and the “Expression BB_O29” value (hypothetical protein) was 46. The “Expression BB_O31” value (hypothetical protein) was 0, the “Expression BB_P20” value (hypothetical protein) was 288 and the “Expression BB_P21” value (hypothetical protein) was 291. The “Expression BB_P30” value (hypothetical protein) was 5, the “Expression BB_Q27” value (hypothetical protein) was 36 and the “Expression BB_Q28” value (hypothetical protein) was 22. For the same compound, the “Expression BB_Q32” value (hypothetical protein) was 14, the “Expression BB_Q33” value (hypothetical protein) was 147 and the “Expression BB_Q38” value (hypothetical protein) was 0. The “Expression BB_Q39” value (hypothetical protein) was 0, the “Expression BB_Q54” value (hypothetical protein) was 1 and the “Expression BB_Q62” value (hypothetical protein) was 1. The “Expression BB_Q0091” value (hypothetical protein) was 6, the “Expression BB_R20” value (hypothetical protein) was 73 and the “Expression BB_R25” value (hypothetical protein) was 43. The “Expression BB_R26” value (hypothetical protein) was 393, the “Expression BB_R29” value (hypothetical protein) was 252 and the “Expression BB_R31” value (hypothetical protein) was 0. For the same compound, the “Expression BB_R43” value (hypothetical protein) was 111, the “Expression BB_S06” value (hypothetical protein) was 0 and the “Expression BB_S08” value (hypothetical protein) was 0. The “Expression BB_S11” value (hypothetical protein) was 0, the “Expression BB_S12” value (hypothetical protein) was 0 and the “Expression BB_S13” value (hypothetical protein) was 0. The “Expression BB_S14” value (hypothetical protein) was 0, the “Expression BB_S18” value (hypothetical protein) was 0 and the “Expression BB_S19” value (hypothetical protein) was 0. The “Expression BB_S20” value (hypothetical protein) was 0, the “Expression BB_S21” value (hypothetical protein) was 11 and the “Expression BB_S25” value (hypothetical protein) was 120. For the same compound, the “Expression BB_S33” value (hypothetical protein) was 29, the “Expression BB_0316” value (integral membrane protein) was 36 and the “Expression BB_0580” value (integral membrane protein) was 210. For the same compound, the “Expression BB_0193” value (lipoprotein) was 15, the “Expression BB_0628” value (lipoprotein) was 158 and the “Expression BB_0664” value (lipoprotein) was 142. The “Expression BB_0832” value (lipoprotein) was 753, the “Expression BB_B27” value (lipoprotein) was 42 and the “Expression BB_D10” value (lipoprotein) was 51. The “Expression BB_J36” value (lipoprotein) was 90, the “Expression mlpF BB_M28” value (lipoprotein) was 0 and the “Expression la7 BB_0365” value (lipoprotein LA7) was 112. For the same compound, the “Expression BB_0593” value (long-chain-fatty-acid CoA ligase) was 24, the “Expression BB_0353” value (membrane protein) was 31 and the “Expression BB_0759” value (membrane protein) was 1041. The “Expression BB_0143” value (membrane protein insertion efficiency factor) was 1085, the “Expression BB_0034” value (outer membrane protein P13) was 41 and the “Expression BB_M01” value (phage portal protein) was 0. For the same compound, the “Expression pstC BB_0216” value (phosphate ABC transporter permease PstC) was 128, the “Expression BB_0727” value (phosphofructokinase) was 48 and the “Expression BB_H29” value (plasmid partition protein) was 0. For the same compound, the “Expression proS BB_0402” value (proline--tRNA ligase) was 87, the “Expression bdrF BB_S29” value (protein BdrF) was 15 and the “Expression bdrV BB_Q42” value (protein BdrV) was 1. The “Expression erpM BB_O40” value (protein ErpM) was 0, the “Expression BB_H13” value (protein RepU) was 3 and the “Expression BB_A69” value (putative surface protein) was 98. The “Expression ksgA BB_0590” value (rRNA small subunit methyltransferase A) was 177, the “Expression dnaB BB_0111” value (replicative DNA helicase) was 144 and the “Expression BB_0419” value (response regulator) was 34. For the same compound, the “Expression lepB BB_0263” value (signal peptidase I) was 98, the “Expression BB_0453” value (small conductance mechanosensitive ion channel) was 467 and the “Expression BB_0641” value (spermidine/putrescine transport system permease) was 70. For the same compound, the “Expression BB_0153” value (superoxide dismutase) was 202, the “Expression BB_I39” value (surface antigen) was 8 and the “Expression BB_0225” value (tRNA-dihydrouridine synthase A) was 194. The “Expression rho BB_0230” value (transcription termination factor Rho) was 22, the “Expression BB_0025” value (transcriptional regulator) was 272 and the “Expression infA BB_0169” value (translation initiation factor IF-1) was 522. The “Expression ung BB_0053” value (uracil-DNA glycosylase) was 1626, the “Expression udk BB_0015” value (uridine kinase) was 37 and the “Expression BB_0831” value (xylose operon regulatory protein) was 122.

— patent publication US20180246095A1, “COMPOSITIONS AND METHODS FOR DIAGNOSING AND TREATING LYME DISEASE” (priority 2015, published 2018)
